We go through three compounds from US20150283270A1, “MODELING ANTI-LEUKEMIC THERAPY BY PATIENT DERIVED AML XENOGRAFTS WITH DISTINCT PHENOTYPES/GENOTYPES” (Crown Bioscience Inc., priority 2014, published 2015).

Structures are written as SMILES. “Also recorded” adds a separate entry of the source.

The test relates to AM7577 leukemic cells (hCD45+). In words: Evaluation of anti-leukemia activity of a therapeutic in AM7577-mice (AML patient derived xenograft). The class given is in vivo, NOD/SCID mice. To be noted: for Inhibition of leukemia in blood: FIG. 4 legend; for Leukemic load in peripheral blood (hCD45+): 5-day-on/2-day-off, starting 15 days post-engraftment. The method, then:
Animal experiments were conducted at Crown Bioscience's laboratory, China. The transplantation recipient NOD/SCID mice were purchased from Beijing HFK Bioscience at between 3-4 weeks of age. The Institutional Animal Care and Use Committee (IACUC) of Crown Bioscience approved animal study protocols. All procedures were under sterile conditions at Crown Bioscience's SPF facility and conducted in strict accordance with the Guide for the Care and Use of Laboratory Animals of the National Institutes of Health. Ficoll® column isolated MNCs were injected into the tail-vein of 4-week old, sub lethally irradiated NOD/SCID mice ([…]), followed by weekly monitoring for peripheral appearance of leukemic cells (CD45^+) via retro-orbital bleeding and flow analysis. Briefly, ˜50 μL blood was collected into anticoagulative tubes (BD 365974, Becton Dickinson and Co., Franklin Lakes, N.J.). After lysis of red blood cells the cells were stained with 20 μL mouse anti-human CD45 antibody (Biolegend, CA) and incubated on ice for 30 minutes in the dark followed by washing with cold PBS. The cells were resuspended in150 μL PBS and subjected to FACS analysis.
Fifteen days post-engraftment, mice were administered different doses of cytarabine (AraC). Mouse blood was collected by retro-orbital bleed and human CD45^+ cells were quantified weekly by flow cytometry. Body weight and clinical signs were also monitored twice weekly. When mice became morbid due to full-blown leukemia, the animals were sacrificed, followed by gross and microscopic examinations. Major relevant organs (bone marrow, spleen, blood, liver, lymph nodes, etc.) were examined and harvested for further analysis, including IHC (method described previously, Yang, M. et al., Int J Cancer. 2012; Sep. 5. doi: 10.1002/ijc.27813) and immunological phenotyping of the leukemia cells by FACS.
Cytarabine (AraC) is the current standard chemotherapy agent for induction therapy of AML, including AML-M5. We tested AraC anti-leukemic activity against AM7577, by subjecting AM7577-mice to a 5-day-on/2-day-off Ara-C dosing regimen, starting 15 days post-engraftment.
We subsequently explored whether AraC treatment actually cured the disease by withdrawing treatment. The result was rapid relapse just a few days post-treatment withdrawal (FIG. 3A). This observation can potentially be interpreted as AraC has only affected leukemic blasts, but has no affect on LICs.

In the case of `CC(C)(C)c1cc(NC(=O)Nc2ccc(-c3cn4c(n3)sc3cc(OCCN5CCOCC5)ccc34)cc2)no1` [AC220], the “Inhibition of leukemia in blood” value is recorded as “Inhibition”.
On to `Nc1ccn([C@@H]2O[C@H](CO)[C@@H](O)[C@@H]2O)c(=O)n1` [AraC, Cytarabine], for which the “Leukemic load in peripheral blood (hCD45+)” value is given as “no detectable leukemic load” (3 mg/kg) and “no detectable leukemic load” (10 mg/kg). Also, the “Relapse after drug withdrawal” value (AM7577-mice, after treatment withdrawal) is listed as “rapidly relapsed; also recorded: rapid relapse”. For the same compound, the “Treatment & response” value (AML mouse model AM7577) was “complete remission”. The “Leukemic blasts in peripheral blood on resuming treatment after withdrawal” value (second dosing period after relapse) is reported as “effectively re-suppressed”. Also, the “Survival of AM7577-mice” value (under treatment vs vehicle group) is “extended life; also recorded: extended AM7577-mice survival times”.
For `CNC(=O)c1cc(Oc2ccc(NC(=O)Nc3ccc(Cl)c(C(F)(F)F)c3)cc2)ccn1` [sorafenib], the “Inhibition of leukemia in blood” value is given as “Inhibition”.
